Source: patent US20200207744A1, “DIMER COMPOUNDS, AND USE IN BINDING TOXIC REPEATS OF RNA” (EXPANSION THERAPEUTICS, INC., priority 2018, published 2020)

test system: r(CUG)12-MBNL1 complex; experiment: Small molecule inhibition of the r(CUG)12-MBNL1 complex measured by TR-FRET; format: binding; settings: biotinylated r(CUG)12 80 nM, MBNL1-His6 60 nM
Procedure: Example 28: Small Molecule Inhibition of the r(CUG)12-MBNL1 Complex Measured by Time Resolved Fluorescence Resonance Energy Transfer (TR-FRET)
The in vitro activity of small molecules were assessed by measuring the inhibition of the r(CUG)12-MBNL1 complex using a TR-FRET assay previously reported by Chen et al Analytical and Bioanalytical Chemistry 2012, 402, 1889. Biotinylated r(CUG)12 was folded at 60° C. in 1× Folding Buffer (20 mM HEPES, pH 7.5, 100 mM KCl, and 10 mM NaCl) and slowly cooled to room temperature. The buffer was then adjusted to 1× TR-FRET Buffer (1× Folding Buffer supplemented with 2 mM MgCl2, 2 mM CaCl2, 5 mM DTT, 0.1% BSA, 0.05% Tween-20) and MBNL1-His6 was added. The final concentrations of RNA and MBNL1-His6 were 80 nM and 60 nM, respectively. Then dilutions of the small molecule were made in 1× TR-FRET buffer. The samples were equilibrated at room temperature for 15 min, after which 1 μL of antibody solution (1:1 mixture of 8.8 ng/μL Anti-His6-Tb and 800 nM streptavidin XL-665) was added. Samples were incubated at room temperature for 1 h, and then TR-FRET was measured using a Molecular Devices SpectraMax M5 plate reader using an excitation wavelength of 345 nm and a 420 nm cutoff. Controls for maximum TR-FRET (100% complex formation) contained 8 μL of 1× TR-FRET Buffer with RNA and protein and 1 μL water. Controls for minimum TR-FRET (no complex formation) contained 8 μL of 1× Assay Buffer, 1 μL water, and no RNA or protein.
To calculate the percent inhibition of complex formation, the ratio of fluorescence intensity at 545 nm and 665 nm in the presence of compound was compared to the ratio in the absence of small molecule (100% r(CUG)12-MBNL1 complex formation) and in the absence of RNA and protein (no complex formation). The resulting curves were fit to the following equation to determine IC50 values: […]
where y is ratio of fluorescence intensities at 545 nm and 665 nm (F545/F665), x is the concentration of small molecule, B is F545/F665 value at max FRET effect (solution has RNA and protein but no small molecule added); A is F545/F665 value at min FRET effect (solution has antibodies but no RNA, protein, or small molecule); and the IC50 is the concentration of small molecule where half of the protein is displaced by small molecule.

Row | Compound | IC50 [µM]
1 | 3,3′-((2,2′-(2-(3-((3-(2,5-bis(6-(3-(dimethylamino)propoxy)-1H-benzo[d]imidazol-2-yl)phenoxy)propyl)(methyl)amino)propoxy)-1,4-phenylene)bis(1H-benzo[d]imidazole-6,2-diyl))bis(oxy))bis(N,N-dimethylpropan-1-amine) [Ex 18] | 0.72
2 | 3,3′-((2,2′-(((oxybis(ethane-2,1-diyl))bis(oxy))bis(2,1-phenylene))bis(1H-benzo[d]imidazole-6,2-diyl))bis(oxy))bis(N,N-dimethylpropan-1-amine) [Ex 13] | 188
3 | 3,3′-((2,2′-((ethane-1,2-diylbis(oxy))bis(2,1-phenylene))bis(1H-benzo[d]imidazole-6,2-diyl))bis(oxy))bis(N,N-dimethylpropan-1-amine) [Ex 12] | > 200
4 | CN(C)CCCOc1ccc2nc(-c3ccccc3OCCOCCOCCOc3ccccc3-c3nc4ccc(OCCCN(C)C)cc4[nH]3)[nH]c2c1 [Ex 14a, 3,3′-((2,2′-((((ethane-1,2-diylbis(oxy))bis(ethane-2,1-diyl))bis(oxy))bis(2,1-phenylene))bis(1H-benzo[d]imidazole-6,2-diyl))bis(oxy))bis(N,N-dimethylpropan-1-amine)] | 166
5 | CN(C)CCCOc1ccc2nc(-c3ccccc3OCCOCCOCCOc3ccccc3-c3nc4ccc(O)cc4[nH]3)[nH]c2c1 [Ex 14b, 2-(2-(2-(2-(2-(2-(6-(3-(dimethylamino)propoxy)-1H-benzo[d]imidazole-2-yl)phenoxy)ethoxy)ethoxy)ethoxy)phenyl)-1H-benzo[d]imidazol-6-ol] | > 200
6 | CN(C)CCCOc1ccc2nc(-c3ccc(-c4nc5ccc(OCCCN(C)C)cc5[nH]4)c(OCCCCCCCCCCCCOc4cc(-c5nc6ccc(OCCCN(C)C)cc6[nH]5)ccc4-c4nc5ccc(OCCCN(C)C)cc5[nH]4)c3)[nH]c2c1 [Ex 20, 3,3′,3″,3′″-((((dodecane-1,12-diylbis(oxy))bis(benzene-2,1,4-triyl))tetrakis(1H-benzo[d]imidazole-2,5-diyl))tetrakis(oxy))tetrakis(N,N-dimethylpropan-1-amine)] | 2.8
